IC50 data for 22 molecules are collected here from patent publication US12522595B2, “Bicyclic ether O-glycoprotein-2-acetamido-2-deoxy-3-D-glucopyranosidase inhibitors” (BIOGEN MA INC., priority 2019, dated 2026).

In the assay the target is T1, Recombinant full length human OGA enzyme (Homo sapiens, UniProt O60502).
T1 construct: Recombinant full length human OGA enzyme was purchased from Origene; purchased Origene
T1 sequence (O60502 1-916): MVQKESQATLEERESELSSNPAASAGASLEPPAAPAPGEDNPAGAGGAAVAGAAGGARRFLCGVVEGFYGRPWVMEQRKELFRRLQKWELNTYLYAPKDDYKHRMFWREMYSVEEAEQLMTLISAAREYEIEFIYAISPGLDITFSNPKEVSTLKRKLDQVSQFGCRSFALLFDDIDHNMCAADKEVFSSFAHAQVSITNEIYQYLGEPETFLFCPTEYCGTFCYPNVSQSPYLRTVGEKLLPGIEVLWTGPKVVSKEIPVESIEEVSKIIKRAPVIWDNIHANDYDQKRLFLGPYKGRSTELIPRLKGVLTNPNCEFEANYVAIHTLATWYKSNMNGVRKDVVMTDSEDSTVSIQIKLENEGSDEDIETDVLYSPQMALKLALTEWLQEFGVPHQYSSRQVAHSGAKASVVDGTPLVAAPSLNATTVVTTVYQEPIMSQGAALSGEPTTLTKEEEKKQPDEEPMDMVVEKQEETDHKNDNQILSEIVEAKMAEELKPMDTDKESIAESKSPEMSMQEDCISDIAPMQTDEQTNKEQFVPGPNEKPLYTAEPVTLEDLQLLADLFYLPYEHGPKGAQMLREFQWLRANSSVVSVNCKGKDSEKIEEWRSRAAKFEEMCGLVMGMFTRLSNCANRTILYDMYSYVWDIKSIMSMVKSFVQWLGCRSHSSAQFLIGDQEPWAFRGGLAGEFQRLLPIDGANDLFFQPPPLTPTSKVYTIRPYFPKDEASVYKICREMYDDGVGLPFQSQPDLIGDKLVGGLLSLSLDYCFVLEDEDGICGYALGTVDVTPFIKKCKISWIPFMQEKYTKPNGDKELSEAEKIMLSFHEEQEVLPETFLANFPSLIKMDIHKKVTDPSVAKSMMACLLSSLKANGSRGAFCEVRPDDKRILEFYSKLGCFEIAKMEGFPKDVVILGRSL
The experiment in a line: OGA enzyme inhibition biochemical assay. The settings on record: 1 nM OGA, 100 μM 4-MUGlcNAc (Km), pH 6.4, 90 minutes at room temperature, 10-point dose-response from 20 μM. In a few lines: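 1 nM OGA with 100 μM 4-MUGlcNAc (Km) in McIlvaine buffer pH 6.4, 0.01% BSA, 90 min at room temperature; quenched with 3M glycine pH 10, fluorescence Ex 355/Em 460 nm. 10-point, 4-fold dilutions from 20 μM; 4-parameter variable-slope fit.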

Usually IC50 stands for the midpoint of a concentration-inhibition curve. In the case of `CC(=O)Nc1nc(F)c(CN2C[C@H](Oc3ccnc4nn(C)cc34)C[C@@H]2C)s1` [Example 140, N-(4-fluoro-5-(((2S,4R)-2-methyl-4-((2-methyl-2H-pyrazolo[3,4-b]pyridin-4-yl)oxy)pyrrolidin-1-yl)methyl)thiazol-2-yl)acetamide], the IC50 is under 1 nM.
As for `CC(=O)Nc1nc(F)c(CN2C[C@H](Oc3cccn4nccc34)C[C@@H]2C)s1` [Example 141, N-(4-fluoro-5-(((2S,4R)-2-methyl-4-(pyrazolo[1,5-a]pyridin-4-yloxy)pyrrolidin-1-yl)methyl)thiazol-2-yl)acetamide], the figure is under 1 nM; as for `CC(=O)Nc1nc(F)c(CN2C[C@H](Oc3ncc4cnn(C)c4n3)C[C@@H]2C)s1` [Example 142, N-(4-fluoro-5-(((2S,4R)-2-methyl-4-((1-methyl-1H-pyrazolo[3,4-d]pyrimidin-6-yl)oxy)pyrrolidin-1-yl)methyl)thiazol-2-yl)acetamide], under 1 nM.
To `CC(=O)Nc1nc(F)c(CN2C[C@H](Oc3ncnc4c3cnn4C)C[C@@H]2C)s1` [Example 143, N-(4-fluoro-5-(((2S,4R)-2-methyl-4-((1-methyl-1H-pyrazolo[3,4-d]pyrimidin-4-yl)oxy)pyrrolidin-1-yl)methyl)thiazol-2-yl)acetamide] belongs under 1 nM; to `CC(=O)Nc1nc(F)c(CN2C[C@H](Oc3ccc4nc(C)nn4c3)C[C@@H]2C)s1` [Example 144, N-(4-fluoro-5-(((2S,4R)-2-methyl-4-((2-methyl-[1,2,4]triazolo[1,5-a]pyridin-6-yl)oxy)pyrrolidin-1-yl)methyl)thiazol-2-yl)acetamide], under 1 nM.
As for `CC(=O)Nc1nc(F)c(CN2C[C@H](Oc3nccc4ncnn34)C[C@@H]2C)s1` [Example 145, N-(5-(((2S,4R)-4-([1,2,4]triazolo[1,5-c]pyrimidin-5-yloxy)-2-methylpyrrolidin-1-yl)methyl)-4-fluorothiazol-2-yl)acetamide], the figure is under 1 nM.
As for `CC(=O)Nc1nc(F)c(CN2C[C@H](Oc3ccn4cnnc4c3)C[C@@H]2C)s1` [Example 146, N-(5-(((2S,4R)-4-([1,2,4]triazolo[4,3-a]pyridin-7-yloxy)-2-methylpyrrolidin-1-yl)methyl)-4-fluorothiazol-2-yl)acetamide], the IC50 is under 1 nM.
As for `CC(=O)Nc1nc(F)c(CN2C[C@H](Oc3cccc4nnnn34)C[C@@H]2C)s1` [Example 147, N-(4-fluoro-5-(((2S,4R)-2-methyl-4-(tetrazolo[1,5-a]pyridin-5-yloxy)pyrrolidin-1-yl)methyl)thiazol-2-yl)acetamide], the figure is under 1 nM; as for `COc1cccn2nc(O[C@@H]3C[C@H](C)N(Cc4sc(NC(C)=O)nc4F)C3)nc12` [Example 148, N-(4-fluoro-5-(((2S,4R)-4-((8-methoxy-[1,2,4]triazolo[1,5-a]pyridin-2-yl)oxy)-2-methylpyrrolidin-1-yl)methyl)thiazol-2-yl)acetamide], under 1 nM; as for `CC(=O)Nc1nc(F)c(CN2C[C@H](Oc3ccn4nncc4c3)C[C@@H]2C)s1` [Example 149, N-(5-(((2S,4R)-4-([1,2,3]triazolo[1,5-a]pyridin-5-yloxy)-2-methylpyrrolidin-1-yl)methyl)-4-fluorothiazol-2-yl)acetamide], under 1 nM.
For the molecule `CC(=O)Nc1nc(F)c(CN2C[C@H](Oc3ccc4nnn(C)c4n3)C[C@@H]2C)s1` [Example 150, N-(4-fluoro-5-(((2S,4R)-2-methyl-4-((3-methyl-3H-[1,2,3]triazolo[4,5-b]pyridin-5-yl)oxy)pyrrolidin-1-yl)methyl)thiazol-2-yl)acetamide], the IC50 was under 1 nM.
On to `CC(=O)Nc1nc(F)c(CN2C[C@H](Oc3ccc4nn(C)nc4n3)C[C@@H]2C)s1` [Example 151, N-(4-fluoro-5-(((2S,4R)-2-methyl-4-((2-methyl-2H-[1,2,3]triazolo[4,5-b]pyridin-5-yl)oxy)pyrrolidin-1-yl)methyl)thiazol-2-yl)acetamide], for which the IC50 was under 1 nM.
Take `CC(=O)Nc1nc(F)c(CN2C[C@H](Oc3ccc4c(nnn4C)n3)C[C@@H]2C)s1` [Example 152, N-(4-fluoro-5-(((2S,4R)-2-methyl-4-((1-methyl-1H-[1,2,3]triazolo[4,5-b]pyridin-5-yl)oxy)pyrrolidin-1-yl)methyl)thiazol-2-yl)acetamide]: the IC50 is under 1 nM.
As for `CC(=O)Nc1nc(F)c(CN2C[C@H](Oc3ccc4c(cnn4C(F)F)n3)C[C@@H]2C)s1` [Example 153, N-(5-(((2S,4R)-4-((1-(difluoromethyl)-1H-pyrazolo[4,3-b]pyridin-5-yl)oxy)-2-methylpyrrolidin-1-yl)methyl)-4-fluorothiazol-2-yl)acetamide], the figure is under 1 nM; as for `CC(=O)Nc1nc(F)c(CN2C[C@H](Oc3ccc4nn(C(F)F)cc4n3)C[C@@H]2C)s1` [Example 154, N-(5-(((2S,4R)-4-((2-(difluoromethyl)-2H-pyrazolo[4,3-b]pyridin-5-yl)oxy)-2-methylpyrrolidin-1-yl)methyl)-4-fluorothiazol-2-yl)acetamide], under 1 nM.
Consider `CC(=O)Nc1ncc(CN2C[C@H](Oc3ccc4ccnn4c3)C[C@@H]2C)s1` [Example 155, N-(5-(((2S,4R)-2-methyl-4-(pyrazolo[1,5-a]pyridin-6-yloxy)pyrrolidin-1-yl)methyl)thiazol-2-yl)acetamide], for which the IC50 is under 1 nM.
On to `CC(=O)Nc1ncc(CN2C[C@H](Oc3cccn4ccnc34)C[C@@H]2C)s1` [Example 156, N-(5-(((2S,4R)-4-(imidazo[1,2-a]pyridin-8-yloxy)-2-methylpyrrolidin-1-yl)methyl)thiazol-2-yl)acetamide], for which the IC50 was under 1 nM.
As for `CC(=O)Nc1nc(F)c(CN2C[C@H](Oc3cccn4ccnc34)C[C@@H]2C)s1` [Example 157, N-(4-fluoro-5-(((2S,4R)-4-(imidazo[1,2-a]pyridin-8-yloxy)-2-methylpyrrolidin-1-yl)methyl)thiazol-2-yl)acetamide], the figure is under 1 nM; as for `CC(=O)Nc1nc(F)c(CN2C[C@H](Oc3nc4ncccc4o3)C[C@@H]2C)s1` [Example 158, N-(4-fluoro-5-(((2S,4R)-2-methyl-4-(oxazolo[4,5-b]pyridin-2-yloxy)pyrrolidin-1-yl)methyl)thiazol-2-yl)acetamide], under 1 nM.
`CC(=O)Nc1ncc(CN2C[C@H](Oc3cccc4cn(C)nc34)C[C@@H]2C)s1` [Example 159, N-(5-(((2S,4R)-2-methyl-4-((2-methyl-2H-indazol-7-yl)oxy)pyrrolidin-1-yl)methyl)thiazol-2-yl)acetamide]: the IC50 was under 1 nM.
To `CC(=O)Nc1ncc(CN2C[C@H](Oc3cccc4cnn(C)c34)C[C@@H]2C)s1` [Example 160, N-(5-(((2S,4R)-2-methyl-4-((1-methyl-1H-indazol-7-yl)oxy)pyrrolidin-1-yl)methyl)thiazol-2-yl)acetamide] belongs 2.4 nM.
To `CC(=O)Nc1nc(F)c(CN2C[C@H](Oc3cccc4cn(C)nc34)C[C@@H]2C)s1` [Example 161, N-(4-fluoro-5-(((2S,4R)-2-methyl-4-((2-methyl-2H-indazol-7-yl)oxy)pyrrolidin-1-yl)methyl)thiazol-2-yl)acetamide] belongs under 1 nM.
